What was measured:
[1] = system: B cells isolated from mouse spleen; experiment: IgE production inhibitory test of spleen B cell (ELISA); format: cell-based; settings: 0.1 μM; rmIL-4 200 U/ml + soluble mCD40 ligand 100 ng/ml, 9 days; no-drug control 45.6
Method: IgE Production Inhibitory Test of Spleen B Cell
B cells isolated from mouse spleen were cultured with 200 U/ml of rmIL-4 and 100 ng/ml of soluble mCD40 ligand in the presence or absence of a test drug in PRMI 1640 medium containing 10% of bovine fetal serum for 9 days, and the amount of IgE in the culture medium was measured by ELISA method.

[2] = system: Bone marrow-derived cultured mast cells of NC/Nga mouse; experiment: Proliferation inhibitory test of mast cell under stimulation by SCF and IL-3; format: cell-based; settings: rmIL-3 100 U/ml + SCF 100 ng/ml, living cells by trypan blue
Method: Proliferation Inhibitory Test of Mast Cell Under Stimulation by SCF and IL-3
Bone marrow-derived cultured mast cells (10^5 cells/ml) of NC/Nga mouse were cultured with rmIL-3 (100 U/ml) and SCF (100 ng/ml) in the presence or absence of a test drug in α-Modified Eagle's Medium containing 10% of bovine fetal serum without phenol red, and then stained with trypan blue, and the number of living cells was counted.

NC/Nga mouse [3] = experiment: Dermatitis inhibitory test by atopic dermatitis model using NC/Nga mouse; format: in vivo; settings: ointment containing 1% applied once a day; FIG. 2
Method: Dermatitis Inhibitory Test by Atopic Dermatitis Model Using NC/Nga Mouse
To the conventional NC/Nga mouse with the onset of severe dermatitis, an ointment containing 1% of a test substance for the drug treated group or a base material of the ointment for the control group was applied once a day, and clinical symptoms were recorded as scores with passage of day. Furthermore, the amounts of IgE in blood before and after the test were measured by ELISA.

[4] = system: mouse bone marrow-derived cultured mast cells (BMCMC); experiment: Degranulation inhibitory test of mast cell (β-hexosaminidase release); format: cell-based; settings: 1 h, anti DNP IgE / DNP-BSA 50 ng/ml stimulation, 60 minutes, read-out: Inhibitory Ration of Degranulation(%) at 10 μM Drug Concentration
Method: Degranulation Inhibitory Test of Mast Cell
Anti DNP IgE was added to mouse bone marrow-derived cultured mast cells (BMCMC) which were treated beforehand with anti DNP IgE for 4 days for expression of IgE receptor. The cells were cultured for 3 days, and treated for 1 hour with or without the addition of a test substance. Then, the medium was changed to α-Modified Eagle's Medium containing 10% of bovine fetal serum without phenol red. After cultivation for 60 minutes with rmIL-3 (100 U/ml) and DNP-BSA (50 ng/ml) in the presence or absence of the test substance, the concentrations of β-hexosaminidase in the culture medium and in the cells were determined, and the progress of degranulation was measured from a ratio of the amounts. The inhibitory ratio of the degranulation by the drug was calculated when degranulation in the absence of the test substance was taken as 100%, and degranulation in the presence of anti DNP-IgE only and in the absence of the test substance was taken as 0%.

NC/Nga mouse [5] = experiment: Immediate type allergy reaction inhibitory test (ear swelling test); format: in vivo; settings: 15 mg/kg intraperitoneally, picryl chloride on auricle; FIG. 1
Method: Immediate Type Allergy Reaction Inhibitory Test (Ear Swelling Test)
To NC/Nga mouse sensitized by an intravenous administration of anti DNP-IgE, a diluent with a test compound for the drug administered group or that without a test drug for the control group was intraperitoneally administered. Two hours after the administration, picryl chloride dissolved in olive oil was applied to auricle to induce immediate allergy, and then swelling of the auricle was measured with passage of time for comparison of the drug administered group and the control group.

HT-1080 cells = experiment: Proliferation inhibitory test of fibrosarcoma (HT-1080) under PDGF stimulation (MTT assay); format: cell-based; settings: 48 hours
Method: Proliferation Inhibitory Test of Fibrosarcoma (HT-1080) Under PDGF Stimulation
HT-1080 cells were cultured for 2 hours in EMEM medium containing 1% of FBS and NEAA in the presence or absence of a test substance. PDGF was added and the cells were cultured for 48 hours, and the proliferation of the cells was measured by MTT assay.

Structure (SMILES): O=C(Nc1cc(C(F)(F)F)cc(C(F)(F)F)c1)c1cc(Cl)ccc1O [compound 50, N-[3,5-Bis(trifluoromethyl)phenyl]-5-chloro-2-hydroxybenzamide]
- Amount of IgE [1]: 24 ng/mL
- Number of Cell ([2]; 1 μM, culture time 0 hr): 100000 mL⁻¹
- Number of Cell ([2]; 1 μM, culture time 24 hr): 86000 mL⁻¹
- Number of Cell ([2]; 1 μM, culture time 48 hr): 84000 mL⁻¹
- Number of Cell ([2]; 1 μM, culture time 72 hr): 116000 mL⁻¹
- Number of Cell ([2]; 5 μM, culture time 0 hr): 100000 mL⁻¹
- Number of Cell ([2]; 5 μM, culture time 24 hr): 70000 mL⁻¹
- Number of Cell ([2]; 5 μM, culture time 48 hr): 52000 mL⁻¹
- Number of Cell ([2]; 5 μM, culture time 72 hr): 22000 mL⁻¹
- effect against dermatitis with an atopic dermatitis model (clinical symptom scores) (NC/Nga mouse [3]): inhibitory effect
- inhibition at 10 µM [4]: > 99%
- effect against immediate type allergy (swelling of the auricle) (NC/Nga mouse [5]): inhibitory effect
- Inhibitory Ratio of Proliferation(%) (HT-1080 cells; Drug Concentration 250 nM): 65.4%
- Inhibitory Ratio of Proliferation(%) (HT-1080 cells; Drug Concentration 500 nM): 96.6%

Structure (SMILES): CC(C)(C)c1nc(NC(=O)c2cc(Br)ccc2O)sc1N1CCOCC1 [compound 199, 5-Bromo-N-{4-[(1,1-dimethyl)ethyl]-5-morpholinothiazol-2-yl}-2-hydroxybenzamide]
- Inhibitory Ratio of Proliferation(%) (HT-1080 cells; Drug Concentration 250 nM): 26.2%
- Inhibitory Ratio of Proliferation(%) (HT-1080 cells; Drug Concentration 500 nM): 24.2%

Structure (SMILES): O=C(Nc1cc(C(F)(F)F)ccc1C(F)(F)F)c1cc(Cl)ccc1O [compound 100, N-[2,5-bis(trifluoromethyl)phenyl]-5-chloro-2-hydroxybenzamide]
- inhibition at 10 µM [4]: 83%

Structure (SMILES): CC(=O)Oc1ccccc1C(=O)Nc1cc(Cl)cc(Cl)c1 [compound 172, 2-acetoxy-N-(3,5-dichlorophenyl)benzamide]
- melting point: 218 to 219 °C

Structure (SMILES): O=C(Nc1cc(C(F)(F)F)cc(C(F)(F)F)c1)c1cc(-n2cccc2)ccc1O [compound 71]
- Inhibitory Ratio of Proliferation(%) (HT-1080 cells; Drug Concentration 250 nM): 57.9%
- Inhibitory Ratio of Proliferation(%) (HT-1080 cells; Drug Concentration 500 nM): 83.1%

Structure (SMILES): CC(C)(C)c1nc(NC(=O)c2cc(Br)ccc2O)sc1N1CCN(c2ccccc2)CC1 [compound 201, 5-Bromo-N-{4-[(1,1-dimethyl)ethyl]-5-(4-phenylpiperazin-1-yl)thiazol-2-yl}-2-hydroxybenzamide]
- Inhibitory Ratio of Proliferation(%) (HT-1080 cells; Drug Concentration 250 nM): 60.3%
- Inhibitory Ratio of Proliferation(%) (HT-1080 cells; Drug Concentration 500 nM): 76.2%

Structure (SMILES): O=C(Nc1cc(C(F)(F)F)ccc1Cl)c1cc(Cl)ccc1O [compound 113, 5-chloro-N-[2-chloro-5-(trifluoromethyl)phenyl]-2-hydroxybenzamide]
- inhibition at 10 µM [4]: 93%

Structure (SMILES): CC(C)(C)c1ccc(O)c(C(=O)Nc2cc(C(F)(F)F)cc(C(F)(F)F)c2)c1 [compound 56, N-[3,5-Bis(trifluoromethyl)phenyl]-5-[(1,1-dimethyl)ethyl]-2-hydroxybenzamide]
- inhibition at 10 µM [4]: 92%
- Inhibitory Ratio of Proliferation(%) (HT-1080 cells; Drug Concentration 250 nM): 37.5%
- Inhibitory Ratio of Proliferation(%) (HT-1080 cells; Drug Concentration 500 nM): 96.9%

Structure (SMILES): CC(C)(C)C(=O)c1sc(NC(=O)c2cc(Cl)ccc2O)nc1C(C)(C)C [compound 195, 5-Chloro-N-{4-[(1,1-dimethyl)ethyl]-5-[(2,2-dimethyl)propionyl]thiazol-2-yl}-2-hydroxybenzamide]
- inhibition at 10 µM [4]: 72%
- Inhibitory Ratio of Proliferation(%) (HT-1080 cells; Drug Concentration 250 nM): 44.7%
- Inhibitory Ratio of Proliferation(%) (HT-1080 cells; Drug Concentration 500 nM): 81.7%

Structure (SMILES): O=C(Nc1cc(C(F)(F)F)ccc1C(F)(F)F)c1cc(Br)ccc1O [compound 552]
- Inhibitory Ratio of Proliferation(%) (HT-1080 cells; Drug Concentration 250 nM): 24.0%
- Inhibitory Ratio of Proliferation(%) (HT-1080 cells; Drug Concentration 500 nM): 19.4%

Source: patent US7700655B2, “Antiallergic agents” (Institute of Medicinal Molecular Design, Inc., priority 2002, dated 2010)
